Source: US8273375B2, “Multiparticle pharmaceutical dosage form for a low-soluble active substances and method for producing said pharmaceutical dosage form” (Evonik Roehm GmbH, priority 2004, dated 2012)
Values after ≈ are worked out from the molar mass of the structure shown.

Experiment: physchem
Conditions: for solubility: water
Method: The lipophilic matrix may consist of a single substance, e.g. a lipid, or of a mixture of substances, e.g. a mixture of lipids. In the case of mixtures, the DAB 10 water-solubility properties, the partition coefficients and the HLB values specified below are calculated from the arithmetic mean of the corresponding values of the substances and from their amounts in parts by weight. The substances used here must not be toxic.
The water-solubility of the active substance and the substance or substances forming the lipophilic matrix can be defined as described in DAD 10 German Pharmacopeia 10th ed. with 3rd suppl. 1994, published by Deutscher Apothekerverlag [=German Pharmacologic Publishing House], Stuttgart and by Govi Verlag, Frankfurt am Main, 2nd suppl. 1993, see Section IV “Allgemeine Vorschriften” [=General Methods] on pages 5 and 6, entitled “Löslichkeit und Lösungsmittell” [=Solubility and Solvents]; see also Ph. Eur. 4.07, 2004). The solubility is given here by the number of parts by volume of a solvent needed to dissolve 1 part by weight of the substance, such as a drug. “Low solubility” applies to substances that need 30-100 parts by volume of solvent to dissolve 1 part by weight of the substance or drug in question, while the terms “very low solubility”, “sparingly soluble” and “difficultly soluble” apply to substances that need 100-1000 parts by volume of a solvent to dissolve 1 part by weight of the substance or drug in question.

Water solubility according to DAB 10: parts of water needed to dissolve 1 part of the active substance | solubility | SMILES
at least 1000 parts of water | 1000 µg/mL (≈ 2800 µM) | CN(CCOc1ccc(CC2SC(=O)NC2=O)cc1)c1ccccn1 (stereo not shown) [Rosiglitazone]
at least 10,000 parts of water | 100 µg/mL (≈ 396 µM) | NC(=O)N1c2ccccc2CC(=O)c2ccccc21 [Oxcarbazepine]
